In ChEMBL document CHEMBL4007434, “Indazole-Based Covalent Inhibitors To Target Drug-Resistant Epidermal Growth Factor Receptor” (J Med Chem, 2017):

Columns and labels:
[1] = target: Epidermal growth factor receptor (Homo sapiens, UniProt P00533, L858R/T790M)
[2] = target: T1, Cytoplasmic tyrosine-protein kinase BMX (Homo sapiens) (UniProt P51813); assay: Inhibition of full-length recombinant human His-tagged cytoplasmic BMX expressed in baculovirus expression system at 1 uM by Z'-LYTE assay
T1 sequence (whole entry): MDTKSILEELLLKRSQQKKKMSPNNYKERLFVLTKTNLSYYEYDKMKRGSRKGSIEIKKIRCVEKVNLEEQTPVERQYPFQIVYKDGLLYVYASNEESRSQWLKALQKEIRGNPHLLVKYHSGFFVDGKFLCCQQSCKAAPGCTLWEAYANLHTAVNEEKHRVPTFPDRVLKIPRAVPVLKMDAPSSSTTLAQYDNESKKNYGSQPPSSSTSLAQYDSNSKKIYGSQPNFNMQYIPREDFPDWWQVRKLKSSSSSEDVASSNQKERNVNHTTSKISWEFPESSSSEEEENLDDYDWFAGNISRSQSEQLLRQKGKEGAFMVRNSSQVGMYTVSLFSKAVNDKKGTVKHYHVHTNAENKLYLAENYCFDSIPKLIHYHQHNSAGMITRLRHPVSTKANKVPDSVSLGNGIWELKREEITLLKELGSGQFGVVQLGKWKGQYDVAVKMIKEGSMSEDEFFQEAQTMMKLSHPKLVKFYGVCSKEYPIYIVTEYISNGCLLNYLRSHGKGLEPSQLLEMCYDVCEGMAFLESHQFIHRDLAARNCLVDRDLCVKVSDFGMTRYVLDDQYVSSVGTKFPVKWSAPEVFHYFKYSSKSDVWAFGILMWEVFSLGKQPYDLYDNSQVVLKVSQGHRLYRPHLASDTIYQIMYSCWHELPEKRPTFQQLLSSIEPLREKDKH

[3] = target: T2, Epidermal growth factor receptor (Homo sapiens, UniProt P00533); type: ADME
T2 sequence (P00533 whole entry): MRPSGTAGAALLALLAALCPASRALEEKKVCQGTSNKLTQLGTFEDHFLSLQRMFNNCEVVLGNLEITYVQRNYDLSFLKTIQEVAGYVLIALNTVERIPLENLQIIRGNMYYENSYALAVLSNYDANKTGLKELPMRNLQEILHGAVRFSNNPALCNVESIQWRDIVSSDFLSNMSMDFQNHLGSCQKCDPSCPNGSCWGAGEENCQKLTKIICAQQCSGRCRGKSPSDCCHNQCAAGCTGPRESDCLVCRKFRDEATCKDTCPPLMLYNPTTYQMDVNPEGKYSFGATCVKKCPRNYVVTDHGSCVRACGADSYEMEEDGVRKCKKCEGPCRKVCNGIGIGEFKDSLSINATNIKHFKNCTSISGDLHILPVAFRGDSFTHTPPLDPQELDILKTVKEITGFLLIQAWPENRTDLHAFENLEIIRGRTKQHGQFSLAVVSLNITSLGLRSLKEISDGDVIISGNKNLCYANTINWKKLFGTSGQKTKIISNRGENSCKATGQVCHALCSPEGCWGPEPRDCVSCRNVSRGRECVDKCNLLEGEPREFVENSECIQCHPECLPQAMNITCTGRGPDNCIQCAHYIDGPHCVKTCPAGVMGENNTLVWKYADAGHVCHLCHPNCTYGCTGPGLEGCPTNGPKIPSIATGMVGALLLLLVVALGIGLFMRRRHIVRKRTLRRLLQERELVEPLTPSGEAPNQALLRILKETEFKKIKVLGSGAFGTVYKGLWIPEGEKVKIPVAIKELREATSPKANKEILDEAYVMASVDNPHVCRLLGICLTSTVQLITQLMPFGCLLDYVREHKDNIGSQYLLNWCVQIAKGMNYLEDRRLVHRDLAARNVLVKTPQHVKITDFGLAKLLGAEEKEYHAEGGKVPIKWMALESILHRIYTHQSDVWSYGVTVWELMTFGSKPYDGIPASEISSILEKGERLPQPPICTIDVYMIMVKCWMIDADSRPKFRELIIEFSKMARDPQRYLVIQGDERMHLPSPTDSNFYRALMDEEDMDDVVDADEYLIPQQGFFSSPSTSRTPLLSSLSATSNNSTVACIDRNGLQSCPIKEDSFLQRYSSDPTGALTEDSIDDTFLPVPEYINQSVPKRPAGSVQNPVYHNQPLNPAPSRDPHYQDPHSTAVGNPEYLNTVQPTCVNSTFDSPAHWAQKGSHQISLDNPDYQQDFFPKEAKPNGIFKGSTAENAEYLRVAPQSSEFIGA

[4] = test system: Epidermal growth factor receptor (Homo sapiens), P00533 [L858R]; settings: 1 uM
Sequence of Epidermal growth factor receptor (Homo sapiens), P00533 [L858R] (P00533 whole entry L858R): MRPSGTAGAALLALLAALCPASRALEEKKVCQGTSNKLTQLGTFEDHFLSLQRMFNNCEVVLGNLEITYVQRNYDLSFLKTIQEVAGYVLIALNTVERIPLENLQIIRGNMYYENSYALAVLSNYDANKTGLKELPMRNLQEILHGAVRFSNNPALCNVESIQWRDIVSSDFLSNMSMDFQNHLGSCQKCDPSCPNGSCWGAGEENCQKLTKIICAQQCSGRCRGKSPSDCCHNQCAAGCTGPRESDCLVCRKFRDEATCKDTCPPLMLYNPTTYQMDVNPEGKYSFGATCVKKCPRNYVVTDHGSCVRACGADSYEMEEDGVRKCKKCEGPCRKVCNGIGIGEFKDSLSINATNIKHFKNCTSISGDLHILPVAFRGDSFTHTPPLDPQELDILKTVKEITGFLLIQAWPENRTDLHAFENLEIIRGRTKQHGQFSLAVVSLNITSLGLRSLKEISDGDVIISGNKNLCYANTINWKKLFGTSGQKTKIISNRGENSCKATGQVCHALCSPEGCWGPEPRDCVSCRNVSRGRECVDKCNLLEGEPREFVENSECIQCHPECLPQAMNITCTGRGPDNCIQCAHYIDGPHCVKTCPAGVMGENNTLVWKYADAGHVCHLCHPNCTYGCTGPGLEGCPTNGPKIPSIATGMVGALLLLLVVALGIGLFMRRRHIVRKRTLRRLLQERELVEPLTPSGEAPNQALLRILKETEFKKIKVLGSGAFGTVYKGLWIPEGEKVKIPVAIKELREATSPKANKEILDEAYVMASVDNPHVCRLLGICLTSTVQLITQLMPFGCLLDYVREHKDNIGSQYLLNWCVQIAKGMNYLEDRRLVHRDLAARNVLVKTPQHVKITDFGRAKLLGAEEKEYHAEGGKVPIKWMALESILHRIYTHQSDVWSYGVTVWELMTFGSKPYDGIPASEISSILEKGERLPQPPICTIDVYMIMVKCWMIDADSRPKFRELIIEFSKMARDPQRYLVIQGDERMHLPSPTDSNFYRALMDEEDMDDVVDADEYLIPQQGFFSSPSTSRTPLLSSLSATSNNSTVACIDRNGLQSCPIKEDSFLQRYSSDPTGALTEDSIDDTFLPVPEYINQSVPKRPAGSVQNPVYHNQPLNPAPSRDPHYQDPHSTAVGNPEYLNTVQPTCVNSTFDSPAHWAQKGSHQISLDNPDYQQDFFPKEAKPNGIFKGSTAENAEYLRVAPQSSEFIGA

[5] = target: T2, Epidermal growth factor receptor; assay: Inhibition of wild-type EGFR in human A431 cells assessed as reduction in cell viability after 96 hrs by CellTiterGlo assay; type: ADME, cell-based
[6] = test system: Epidermal growth factor receptor (Homo sapiens), P00533 [L858R,T790M]
Sequence of Epidermal growth factor receptor (Homo sapiens), P00533 [L858R,T790M] (P00533 whole entry T790M/L858R, looked up, the tested form may be a part): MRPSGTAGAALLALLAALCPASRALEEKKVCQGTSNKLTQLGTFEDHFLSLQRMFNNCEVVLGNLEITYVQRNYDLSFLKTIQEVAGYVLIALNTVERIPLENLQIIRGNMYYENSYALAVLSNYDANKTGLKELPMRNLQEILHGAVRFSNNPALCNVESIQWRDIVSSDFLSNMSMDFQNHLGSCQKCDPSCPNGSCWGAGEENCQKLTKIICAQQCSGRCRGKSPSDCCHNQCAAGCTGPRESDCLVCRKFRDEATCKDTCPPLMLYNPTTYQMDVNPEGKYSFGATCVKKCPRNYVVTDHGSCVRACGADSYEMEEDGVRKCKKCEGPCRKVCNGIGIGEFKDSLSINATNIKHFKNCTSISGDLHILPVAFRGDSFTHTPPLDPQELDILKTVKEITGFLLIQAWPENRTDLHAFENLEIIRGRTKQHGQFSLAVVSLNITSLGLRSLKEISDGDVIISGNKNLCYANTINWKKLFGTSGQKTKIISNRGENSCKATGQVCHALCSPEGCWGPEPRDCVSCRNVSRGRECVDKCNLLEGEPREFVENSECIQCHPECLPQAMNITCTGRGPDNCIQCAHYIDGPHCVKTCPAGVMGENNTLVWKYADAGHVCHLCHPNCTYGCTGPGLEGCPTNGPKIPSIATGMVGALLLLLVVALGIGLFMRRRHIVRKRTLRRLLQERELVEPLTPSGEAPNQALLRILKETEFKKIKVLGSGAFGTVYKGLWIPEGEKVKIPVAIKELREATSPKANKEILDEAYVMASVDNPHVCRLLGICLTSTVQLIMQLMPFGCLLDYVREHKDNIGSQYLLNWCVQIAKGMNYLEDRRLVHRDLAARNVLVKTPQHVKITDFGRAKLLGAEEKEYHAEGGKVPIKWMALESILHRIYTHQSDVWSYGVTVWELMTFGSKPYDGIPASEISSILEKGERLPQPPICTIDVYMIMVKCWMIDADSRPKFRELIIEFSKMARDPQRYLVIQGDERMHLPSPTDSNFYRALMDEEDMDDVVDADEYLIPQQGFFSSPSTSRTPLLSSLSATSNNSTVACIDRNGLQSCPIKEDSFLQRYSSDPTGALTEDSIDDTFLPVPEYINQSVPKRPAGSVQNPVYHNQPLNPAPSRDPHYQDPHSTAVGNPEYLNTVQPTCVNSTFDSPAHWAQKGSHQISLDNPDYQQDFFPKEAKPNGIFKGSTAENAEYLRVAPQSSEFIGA

[7] = target: T3, Tyrosine-protein kinase TXK (Homo sapiens) (UniProt P42681); assay: Inhibition of full-length recombinant human N-terminal GST-tagged cytoplasmic TXK (260 to 527 amino acid residues) expressed in baculovirus expression system at 1 uM by Z'-LYTE assay
T3 sequence (whole entry): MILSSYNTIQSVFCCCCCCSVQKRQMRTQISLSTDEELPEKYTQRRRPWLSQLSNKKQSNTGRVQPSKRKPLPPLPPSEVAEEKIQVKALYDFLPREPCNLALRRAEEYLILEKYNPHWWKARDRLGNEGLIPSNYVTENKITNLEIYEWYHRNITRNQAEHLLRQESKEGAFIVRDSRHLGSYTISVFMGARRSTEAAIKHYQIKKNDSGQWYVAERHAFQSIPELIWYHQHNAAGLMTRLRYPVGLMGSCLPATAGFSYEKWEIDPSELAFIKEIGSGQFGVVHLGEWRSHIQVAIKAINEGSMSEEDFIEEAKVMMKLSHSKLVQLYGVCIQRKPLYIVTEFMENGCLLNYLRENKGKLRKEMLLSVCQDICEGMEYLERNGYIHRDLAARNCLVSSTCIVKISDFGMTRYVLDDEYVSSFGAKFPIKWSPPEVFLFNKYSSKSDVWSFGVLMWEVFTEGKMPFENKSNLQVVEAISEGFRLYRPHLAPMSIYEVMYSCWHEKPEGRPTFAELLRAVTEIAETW

[8] = Stability in human plasma assessed as compound remaining at 5 uM after 1 hr by LCMS analysis; type: ADME, cell-free; settings: read-out: Stability

Sequence of Epidermal growth factor receptor (Homo sapiens, UniProt P00533, L858R/T790M) (P00533 25-1210 T790M/L858R limits assumed): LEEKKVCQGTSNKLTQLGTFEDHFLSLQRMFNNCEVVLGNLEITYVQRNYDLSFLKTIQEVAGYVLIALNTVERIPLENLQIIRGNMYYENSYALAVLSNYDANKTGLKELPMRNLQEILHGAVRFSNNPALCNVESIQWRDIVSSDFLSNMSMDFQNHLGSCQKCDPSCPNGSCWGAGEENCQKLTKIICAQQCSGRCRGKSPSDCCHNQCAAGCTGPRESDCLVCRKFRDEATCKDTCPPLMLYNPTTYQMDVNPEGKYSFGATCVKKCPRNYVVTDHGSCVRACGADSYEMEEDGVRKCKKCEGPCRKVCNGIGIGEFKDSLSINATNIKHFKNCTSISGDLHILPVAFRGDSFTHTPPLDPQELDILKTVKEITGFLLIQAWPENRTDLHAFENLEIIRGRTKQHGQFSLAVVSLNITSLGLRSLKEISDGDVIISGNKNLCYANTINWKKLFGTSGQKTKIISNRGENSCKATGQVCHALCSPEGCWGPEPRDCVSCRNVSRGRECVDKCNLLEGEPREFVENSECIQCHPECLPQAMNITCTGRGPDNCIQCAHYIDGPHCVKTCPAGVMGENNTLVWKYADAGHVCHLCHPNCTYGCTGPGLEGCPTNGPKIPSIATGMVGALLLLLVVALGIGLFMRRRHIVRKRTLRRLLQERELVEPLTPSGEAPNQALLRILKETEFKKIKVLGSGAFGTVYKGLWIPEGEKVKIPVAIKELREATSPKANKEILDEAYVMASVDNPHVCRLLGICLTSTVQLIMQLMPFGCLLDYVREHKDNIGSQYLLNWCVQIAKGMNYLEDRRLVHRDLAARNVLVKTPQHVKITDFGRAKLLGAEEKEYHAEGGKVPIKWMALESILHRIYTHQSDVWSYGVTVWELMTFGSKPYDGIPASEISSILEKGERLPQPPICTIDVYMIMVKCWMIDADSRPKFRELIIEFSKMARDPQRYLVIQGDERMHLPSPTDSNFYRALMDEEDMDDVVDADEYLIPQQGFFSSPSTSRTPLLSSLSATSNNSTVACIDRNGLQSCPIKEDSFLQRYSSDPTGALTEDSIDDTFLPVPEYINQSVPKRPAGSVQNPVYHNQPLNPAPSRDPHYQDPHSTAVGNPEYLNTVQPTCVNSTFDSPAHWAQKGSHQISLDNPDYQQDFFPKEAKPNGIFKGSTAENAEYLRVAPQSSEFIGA

C=CC(=O)Nc1cc(Nc2n[nH]c3cc(Nc4cccc(F)c4)ccc23)c(OC)cc1N(C)CCN(C)C
IC50 [1]: < 1 nM | inhibition [2]: > 85% | IC50 [3]: < 1 nM | inhibition [4]: > 95% | EC50 [5]: 3100 nM | Kinact [6]: 0.17 min⁻¹ | inhibition [7]: > 85% | remaining at 1 h, 5 µM [8]: > 75%
